#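 Dose response: 5 concentrations. Exposure: 48 h. Format: 96-well plates. Endpoint: linear interpolation; highest concentration if not reached. GI50 marks 50% less growth. At the TGI there is no net growth.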
# What was measured:
# Experiment in all cases: inhibition of tumour cell growth, NCI panel, 48 h
# CAKI-1 renal = tested on: CAKI-1 renal
# ACHN renal = tested on: ACHN renal
# EKVX NSCLC = tested on: EKVX NSCLC
# A498 renal = tested on: A498 renal
# UACC-257 melanoma = tested on: UACC-257 melanoma
# M14 melanoma = tested on: M14 melanoma
# K-562 leukemia = tested on: K-562 leukemia
# RXF 393 renal = tested on: RXF 393 renal
# SF-539 CNS = tested on: SF-539 CNS
# MALME-3M melanoma = tested on: MALME-3M melanoma
SMILES,GI50 (CAKI-1 renal),TGI (CAKI-1 renal),GI50 (ACHN renal),TGI (ACHN renal),GI50 (EKVX NSCLC),TGI (EKVX NSCLC),GI50 (A498 renal),TGI (A498 renal),GI50 (UACC-257 melanoma),TGI (UACC-257 melanoma),GI50 (M14 melanoma),TGI (M14 melanoma),GI50 (K-562 leukemia),TGI (K-562 leukemia),GI50 (RXF 393 renal),TGI (RXF 393 renal),GI50 (SF-539 CNS),TGI (SF-539 CNS),TGI (MALME-3M melanoma),GI50 (MALME-3M melanoma)
O=C(O)CC(S)C(=O)O.[Li+].[Sb] (stereo not given),> 100 µM,> 100 µM,> 100 µM,> 100 µM,> 100 µM,> 100 µM,> 100 µM,> 100 µM,> 100 µM,> 100 µM,39.5 µM,> 100 µM,85.3 µM,> 100 µM,> 100 µM,> 100 µM,,,,
COc1ccc2[nH]cc(Cc3c[nH]c4ccc(OC)cc34)c2c1,19.9 µM,44.4 µM,20 µM,43.9 µM,17.9 µM,45.9 µM,3.32 µM,14.5 µM,32.4 µM,88.1 µM,20.3 µM,44 µM,19.1 µM,71.4 µM,28 µM,54.7 µM,17.2 µM,33.1 µM,,
O=[N+]([O-])c1cc(C(F)(F)F)cc2n[se]nc12,,9 µM,,5.89 µM,,14.1 µM,,31.5 µM,,4.56 µM,,3.22 µM,,5.14 µM,,4.91 µM,,7.33 µM,3.57 µM,
CN(CCCCCCCCNc1ccnc2ccccc12)Cc1ccc(-c2ccc(-c3ccc(C#N)cc3)s2)cc1,1.3 µM,2.65 µM,1.28 µM,2.55 µM,0.827 µM,2.28 µM,1.22 µM,2.6 µM,0.482 µM,1.6 µM,0.443 µM,1.56 µM,0.0172 µM,0.107 µM,1.13 µM,2.54 µM,0.797 µM,2.23 µM,2.21 µM,903 nM
COC(=O)c1cc2c([nH]c3ccccc32)c(-c2nc3ccccc3cc2CO)n1,> 100 µM,> 100 µM,30 µM,> 100 µM,> 100 µM,> 100 µM,30.4 µM,> 100 µM,> 100 µM,> 100 µM,> 100 µM,> 100 µM,> 100 µM,> 100 µM,21.6 µM,> 100 µM,47 µM,> 100 µM,> 100 µM,> 100000 nM
COc1cc2c(cc1OC)-c1c(c3ccc([N+](=O)[O-])cc3c(=O)n1CCCN=[N+]=[N-])C2=O,26.3 µM,70.7 µM,19.4 µM,> 100 µM,> 100 µM,> 100 µM,40.7 µM,> 100 µM,> 100 µM,> 100 µM,20.3 µM,67.3 µM,19.6 µM,> 100 µM,> 100 µM,> 100 µM,36.4 µM,> 100 µM,,
CC(O)(c1ccc(OCCC[N+](C)(C)C)cc1)C(C)(O)c1ccc(OCCC[N+](C)(C)C)cc1 (stereo not given),,> 100 µM,,> 100 µM,,> 100 µM,,> 100 µM,,> 100 µM,,> 100 µM,,> 100 µM,,> 100 µM,,> 100 µM,> 100 µM,
CC(Oc1ccc2c(=O)cc(-c3ccccc3)oc2c1)C(=O)O (stereo not given),,> 100 µM,,> 100 µM,,> 100 µM,,> 100 µM,,> 100 µM,,> 100 µM,,> 100 µM,,> 100 µM,,> 100 µM,> 100 µM,
COc1ccccc1-c1ccc2c(N)c(C(=O)c3ccc4c(c3)OCO4)sc2n1,10.2 µM,25.9 µM,4.07 µM,13.5 µM,,,2.39 µM,13.8 µM,6.1 µM,22.7 µM,4.21 µM,75 µM,3.74 µM,> 100 µM,3.01 µM,11.2 µM,4.94 µM,17 µM,16 µM,4900 nM
C=C1CCCC2OC(OC)CCC12 (stereo not given),,> 100 µM,,> 100 µM,,> 100 µM,,> 100 µM,,> 100 µM,,> 100 µM,,> 100 µM,,> 100 µM,,> 100 µM,> 100 µM,
CC(=O)CCn1[nH]c(=O)c(Cl)c(Cl)c1=O,,28.8 µM,,> 100 µM,,> 100 µM,,> 100 µM,,> 100 µM,,> 100 µM,,> 100 µM,,> 100 µM,,> 100 µM,> 100 µM,
Cc1cnc(-c2ccc(-c3ccc(NC(=O)Nc4cccc(C(F)(F)F)c4)cc3F)c3c2C(=O)NC3)[nH]1,2.18 µM,> 44.9 µM,1.97 µM,> 52.8 µM,26 µM,> 50.6 µM,0.115 µM,3.13 µM,13.5 µM,> 66 µM,0.624 µM,32.9 µM,1.43 µM,31.9 µM,2.42 µM,21.3 µM,0.251 µM,22.7 µM,23.1 µM,1470 nM
CCN(CC)CCOc1ccc(NC(=O)C(C(C)C)N2C(=O)/C(=C/c3ccc(Br)cc3)SC2=S)cc1 (stereo not given),4.38 µM,17.1 µM,1.78 µM,3.25 µM,5.24 µM,18.8 µM,1.52 µM,14.6 µM,2.2 µM,5.14 µM,2.07 µM,4.27 µM,2.24 µM,5.86 µM,5.6 µM,19.1 µM,1.87 µM,3.55 µM,3.3 µM,1710 nM
COc1ccc(C(=O)Nc2ccn(CCOC(=O)c3ccc(OC)cc3)c(=O)n2)cc1,,> 100 µM,,> 100 µM,,> 100 µM,,> 100 µM,,> 100 µM,,> 100 µM,,> 100 µM,,54.3 µM,,> 100 µM,> 100 µM,
COc1ccc2c(c1)C(=O)/C(=C/c1cccc(OCC(=O)c3ccc([N+](=O)[O-])cc3)c1)CO2,3.85 µM,10.4 µM,2.32 µM,6.41 µM,7.68 µM,21.9 µM,14.3 µM,27.3 µM,3.73 µM,10.2 µM,2.19 µM,4.32 µM,1.96 µM,> 22.4 µM,1.89 µM,4.32 µM,2.33 µM,6.12 µM,10.9 µM,2910 nM
